# In patent US12516080B2, “Remdesivir and remdesivir analogs, solutions, and nanoparticle, liposomal, and microparticle compositions for treating viral infections” (priority 2020, dated 2026):
# Like-named read-outs stand apart in the source and are kept apart here.
# What was measured:
# [1] = In-vitro plasma stability, statements over human, hamster, and mouse plasma; type: in vitro ADME; details: different plasmas
# Protocol: (§1) For nucleoside triphosphate analysis, LC-MS/MS was performed by ion-pairing chromatography using LC 20AD UFLC (Shimadzu, Japan) couple with an API 5500 (AB Sciex, USA). The separation was achieved on a 50×2.1 mm Agilent 3.5 μm C18 column. The mobile phase consisted of 3 mM ammonium formate with 10 mM dimethylhexylamine in water (mobile phase A), and 0.1% formic Acid in ACN (mobile phase B). A multi-stage linear gradient initiated with 2% B for 1 min, increased to 95% B in 2 min and maintained with 95% B for 1 min at a flow rate of 0.4 mL/min. Detection was performed on negative ion mode and multiple reaction monitoring modes.
# (§2) Remdesivir, analogs and their metabolites alanine metabolite and Nuc were analyzed on an X500R QTOF System (AB Sciex, USA). Chromatographic separation was obtained on a 50×2.1 mm Agilent 3.5 μm C18 column using constant flow rate of 0.6 mL/min. The gradient mobile phase consisted of 0.1% formic acid in water (mobile phase A) and 0.1% formic acid acetonitrile (mobile phase B), running from 5% B to 95% B within 3 min and then maintaining 95% B for 1 min. The eluent was introduced into quadrupole time-of-flight mass spectrometry by electrospray ionization (ESI) operated in positive modes.
# (§3) All the analytes were quantified using 10-point standard curves ranging from 5 to 5000 ng/mL.
# (§4) To test the in-vitro plasma stability, 5 ul of […] test compound (remdesivir, MMT4-70, MMT4-98, MMT5-1) was added to 495 ul human, hamster, and mouse plasma, respectively. The structures of MMT4-70, MMT4-98, MMT5-1 are shown below. Aliquot of 40 μL was pipetted from the reaction solution and stopped by the addition of 160 μL cold acetonitrile at different sampling time (0, 10 min, 30 min, 60 min and 120 min). The incubation solution was centrifuged at 3500 rpm for 10 minutes to precipitate protein. The supernatant was used for LC/MS/MS analysis.
# [2] = In-vitro plasma stability, mouse plasma; type: in vitro ADME; details: compared with remdesivir
# Protocol: as §1, §2, §3, §4
# [3] = mice, cited from earlier work
# AMJ2-C11 cells = experiment: Cellular uptake of formulations, AMJ2-C11 cells; type: cell-based; details: 10 μM
# [4] = Tissue targeting of formulations (concentration-time profiles and AUC in tissues); type: in vivo; details: hamsters, i.v. 10 mg/Kg; for parent compound concentration through all tissues: 0.5-24 hr, short time points
# Protocol: as §1, §2, §3
# Besides nano formulation, a cyclodextrin-based formulation was also prepared for MMT5-14. Briefly, 2% cremophor and 2% ethanol was added to dissolve the MMT5-14, followed by mixing with 20% SBE-CD. Two formulated MMT5-14 compounds together with remdesivir (marketed formulation) were i.v. administered to catheterized hamsters with dose as 10 mg/Kg. Each group has two hamsters. At different time points (0.5 hr, 1 hr, 4 hr, 7 hr and 24 hr), the hamsters were euthanized and samples including plasma, blood, blood vessel, heart, intestine, kidney, lung, lymph node, spleen, trachea, and others were collected for future LC-MS analysis.
# [5] = marmosets, cited from earlier work
# B24 cells = details: cited from earlier work
# [6] = Short-time PK test and initial tissue targeting (plasma, blood, lung); type: in vivo; details: hamsters, i.v. 10 mg/Kg
# Protocol: as §1, §2, §3
# Short-time PK test was used to compare different compounds. Five remdesivir analogs (MMT4-70, MMT4-98, MMT5-1, MMT5-14, and MMT5-15) were compared to remdesivir. The structures of MMT5-14 and MMT5-15 are shown below. Albumin nanocomplexes of the remdesivir analogs were made according to the following procedure: organic phase was prepared by dissolving the synthesized compounds (20 mg) into chloroform (1 ml). 20 ml of marketed HSA solution (5%) was then mixed with organic phase and dispersed vigorously by a rotor-stator homogenizer (Ultra-Turrax T25, 8K rpm-12K rpm, 5 min) to generate a milk-like emulsion. The emulsion was then processed by a high-pressure homogenizer (Nano DeBEE) with the parameters set as pressure=15,000 psi-20,000 psi, condensation temp=5° C., cycles=6. Remaining organic solvent in the product was removed by a rotatory evaporator. The final nano-suspension was filtered with 0.22 μm membrane and freeze dried (primary drying temp=−5° C. for 30 h and secondary drying temp=30° C. for 6 h). The vials were filled with nitrogen before sealing and stored at −20° C.
# The formulations and remdesivir (marketed formulation) were i.v. administered to catheterized hamsters with dose of 10 mg/Kg. Each group had two hamsters. At different time points (0.25 hr, 1 hr, 2 hr and 4 hr), plasma was collected for future LC-MS analysis. At 4 hr time point, the hamsters were euthanized and blood and lung were collected for future LC-MS analysis.
# human cells = details: in vitro metabolism; cited from earlier work
# [7] = cited from earlier work
# Calu-3 cells = experiment: Cellular uptake of formulations, Calu-3 cells; type: cell-based; details: 10 μM
# [8] = tested on: PBMC, monocytes, Hela, microphage, and HUVEC; details: multiple human and rhesus monkey cells; cited from earlier work
# THP-1 cells = experiment: Cellular uptake of formulations, THP-1 cells; type: cell-based; details: 10 μM
# [9] = In-vitro plasma stability, human plasma; type: in vitro ADME
# Protocol: as §1, §2
# All the analytes were quantified using 10-point standard curves ranging from 5 to 5000 ng/mL. […]
# COVID-19 virus = experiment: In vitro anti-COVID-19 virus activity of remdesivir (literature); type: cell-based, SARS-CoV-2; details: assuming intracellular Nuc-TP accumulates more than 10-fold to extracellular remdesivir
smiles,measurement,setting,value
CCCCCCCCCCCCOC(=O)[C@H](C)NP(=O)(OC[C@H]1O[C@@H](c2ccc3c(N)ncnn23)[C@H](O)[C@@H]1O)Oc1ccccc1 (stereo partly drawn) [MMT4-70],overall stability compared with remdesivir,[1],more stable than remdesivir
same,stability taking account of ALA generation,[2],similar/better stability
"CCC(CC)COC(=O)[C@H](C)N[P@](=O)(OC[C@H]1O[C@@](C#N)(c2ccc3c(N)ncnn23)[C@H](O)[C@@H]1O)Oc1ccccc1 [remdesivir, Remdesivir]",concentration of Nuc-TP in the lung,[3]; 25-50 mg/kg remdesivir,~3000 nM
same,concentration of remdesivir in the lung,[3]; 25-50 mg/kg,did not achieve measurable concentration
same,alanine metabolite concentration in cells,AMJ2-C11 cells,higher concentrations
same,generation of NTP in cells,AMJ2-C11 cells,higher generation
same,parent compound concentration through all tissues,[4],quickly metabolized
same,active metabolite NTP accumulation,"[4]; blood vessel, heart, and lymph node",better accumulation
same,NUC concentration in tissues,[4]; several tissues like heart and trachea,high concentration
same,concentration of Nuc-TP in the lung,[5]; i.v. bolus 10 mg/kg remdesivir,800 to 1500 nM
same,remdesivir in the lungs,[5]; i.v. bolus 10 mg/kg,not detectable
same,intracellular Nuc-TP accumulation relative to extracellular remdesivir,B24 cells,more than 3 fold
same,stability in plasma (plasma concentration change),[6]; 0.25-4 hr,quickly metabolized
same,ALA concentration in plasma,[6]; short time points,High concentration
same,NUC concentration in plasma,[6]; short time points,High concentration
same,other metabolites share,human cells,45%
same,remdesivir converted into Nuc-TP,human cells,approximately 55%
same,Nuc-TP concentration in PBMC,[7]; blood cells such as PBMC,30-40 PM
same,concentration of Nuc-TP in the lung,"[7]; monkey, 10 mg/kg remdesivir",800 to 1500 nM
same,concentration of remdesivir in the lung,"[7]; monkey, 10 mg/kg",did not achieve measurable concentration
same,plasma nucleoside monophosphate (Nuc-MP) concentration,"[7]; monkey, i.v. 10 mg/kg remdesivir, for 12-24 hrs",0.5 to 1 µM
same,remdesivir plasma concentration in 30 min,"[7]; monkey, i.v. 10 mg/kg, 30 min",below 0.5 μM
same,remdesivir plasma concentration,"[7]; monkey, i.v. 10 mg/kg, initial",several micromolar
same,alanine metabolite concentration in cells,Calu-3 cells,higher concentrations
same,generation of NTP in cells,Calu-3 cells,higher generation
same,intracellular Nuc-TP versus extracellular concentration of remdesivir,[8],25-100 folds
same,alanine metabolite concentration in cells,THP-1 cells,higher concentrations
CCCCCCCCCCCCOC(=O)[C@H](C)NP(=O)(OC[C@H]1O[C@@H](c2ccc3c(N)ncnn23)[C@H](O)[C@@H]1O)Oc1cccc2ccccc12 (stereo partly drawn) [MMT4-98],overall stability compared with remdesivir,[1],more stable than remdesivir
same,stability taking account of ALA generation,[2],similar/better stability
C[C@H](NP(=O)(OC[C@H]1O[C@@H](c2ccc3c(N)ncnn23)[C@H](O)[C@@H]1O)Oc1cccc2ccccc12)C(=O)OCc1ccccc1 (stereo partly drawn) [MMT5-1],stability ranking in human plasma,[9],behaved best
same,overall stability compared with remdesivir,[1],more stable than remdesivir
same,stability taking account of ALA generation,[2],similar/better stability
N#C[C@@]1(c2ccc3c(N)ncnn23)O[C@H](COP(=O)(O)OP(=O)(O)OP(=O)(O)O)[C@@H](O)[C@H]1O [Nuc-TP],EC50,COVID-19 virus; read-out: EC50 of intracellular Nuc-TP against COVID-19 virus,> 7.7 µM
same,EC90,COVID-19 virus; read-out: EC90 of intracellular Nuc-TP against COVID-19 virus,> 17.6 µM
CCCCCC/C=C\C/C=C\CCCCCCCCOC(=O)[C@H](C)NP(=O)(OC[C@H]1O[C@@H](c2ccc3c(N)ncnn23)[C@H](O)[C@@H]1O)Oc1ccccc1 (stereo partly drawn) [MMT5-14],ALA metabolite concentration in tissues compared with remdesivir,[4],higher
same,parent compound concentration through all tissues,[4],much higher
same,AUC of ALA compared with remdesivir,[4]; all analyzed tissues,higher AUCs
same,AUC of the parent compound compared with remdesivir,[4]; all analyzed tissues,higher AUCs
same,"parent compound, MMT5-14 versus Nano-MMT5-14 groups","[4]; blood vessel, kidney, and trachea",higher
same,active metabolite NTP accumulation,"[4]; blood, lung, and spleen",behaved better
same,"parent compound, MMT5-14 versus Nano-MMT5-14 groups, most tissues",[4]; most tissues,No significance
same,stability and concentration in blood and lung tissue (reason for selection),[6],balanced stability and high concentration in blood and lung tissue
